Laboratory results: patent publication US11787792B2, “5-[[4-[[morpholin-2-yl]methylamino]-5-(trifluoromethyl)-2 Pyridyl]Amino]Pyrazine-2-carbonitrile and therapeutic uses thereof” (priority 2012, dated 2023)

What was measured:
Assay type in all cases: cell-based
[1] = test system: HT29 cells; assay: Cellular potency in Mitosis Inhibition Assay (MIA), checkpoint abrogation after etoposide; conditions: for IC50: Homo sapiens, HT-29, HT29 cells, etoposide pre-treatment, nocodazole, read-out: CHK1 Cellular Potency MIA IC50; for (fold better) Compound 1, CHK1 cellular potency MIA: fold by which Compound 1 is more potent than the compound; for (fold better) Compound 2, CHK1 cellular potency MIA: fold by which Compound 2 is more potent than the compound
Procedure: Assay 2: Cellular Potency in Mitosis Inhibition Assay (MIA)
Checkpoint abrogation by CHK1 kinase function inhibitors in combination with genotoxic agents was assessed using a europium based ELISA assay designed to quantify the number of cells trapped in mitosis after treatment with a genotoxic agent (to induce G2 arrest) followed by a CHK1 inhibitor test compound in combination with nocodazole to abrogate this arrest. HT29 cells were seeded at 10^4 cells per well into 96-well plates in a volume of 160 μL and left to attach for 36 hours. […] After genotoxic drug exposure, the medium was removed and replaced with fresh medium (160 μL). […] CHK1 inhibitor test compounds were added in 40 μL aliquots using quadruplicate wells for each concentration. After 21 hours exposure, the medium was removed and cells were fixed in 4% formaldehyde in phosphate buffered saline (PBS, pH 7.4, pre-cooled to 4° C.) for 30 minutes at 4° C., followed by 100% methanol (pre-cooled to −20° C.) for 10 minutes at ambient temperature. Wells were washed with PBS and blocked with 5% dried milk (Marvel) in Tris-buffered saline (TBS, pH 7.4) at 37° C. for 30 minutes. Each well was washed three times with water containing 0.1% Tween 20. […] Primary antibody was removed and wells were washed with water containing 0.1% Tween 20.
Europium emissions were counted on a Wallac, Victor2 counter (Perkin-Elmer, Bucks UK).

[2] = test system: HT29 cells; assay: Selectivity in cells for CHK1-dependent checkpoint abrogation versus cytotoxicity (Activity Index = SRB IC50/MIA IC50); conditions: for (fold better) Compound 1, cellular selectivity: fold by which Compound 1 is more selective than the row's compound; for (fold better) Compound 2, cellular selectivity: fold by which Compound 2 is more selective than the row's compound
Procedure: Assay 3: Assessment of Selectivity in Cells for CHK1-Dependent Checkpoint Abrogation Versus Cytotoxicity
Compound cytotoxicity was assessed using a 96 hour sulforhodamine B assay (SRB, Sigma catalog number S9012). HT29 or SW620 cells were seeded at 1.6 to 3.2×10^3 cells per well in 96-well plates in a volume of 160 μL medium and allowed to attach for 36 hours prior to treatment. […] Cells were incubated for 96 hours (four doublings) at 37° C. in a humidified 5% CO2 environment and then fixed and stained with SRB.
The Activity Index (AI), a measure of the selectivity of the CHK1 inhibitor test compounds for effecting CHK1-dependent checkpoint abrogation versus cytotoxicity was calculated from the ratio of the CHK1 inhibitor cytotoxicity IC50 versus the MIA IC50 (i.e., AI=CHK1 inhibitor SRB IC50/MIA IC50), both measured in HT29 cells.

[3] = test system: HT29 cells; assay: Cellular efficacy in combination with SN38 (SRB potentiation assay); conditions: SRB IC50/Potentiation IC50, HT29 cells, SN38 at its IC50, 96 hours
Procedure: Assay 4: Cellular Efficacy in HT29 or SW620 Colon Carcinoma Cells in Combination with SN38 or Gemcitabine
HT29 or SW620 cells were seeded at 1.6 to 3.2×10^3 cells per well in 96-well plates in a volume of 160 μL medium and allowed to attach for 36 hours prior to treatment.
The Potentiation Index (PI) was calculated as a measure of the ability of the CHK1 inhibitor to enhance SN38 or gemcitabine cytotoxicity and was defined as the ratio of the Cytotoxicity IC50 of the CHK1 inhibitor alone versus the Potentiation IC50 of the CHK1 inhibitor combined with the genotoxic (i.e., PI=CHK1 inhibitor SRB IC50/Potentiation IC50).

Row | Structure (SMILES) | IC50 [1] [nM] | (fold better) Compound 1, CHK1 cellular potency MIA [1] [fold] | (fold better) Compound 2, CHK1 cellular potency MIA [1] [fold] | (fold better) Compound 1, cellular selectivity [2] [fold] | (fold better) Compound 2, cellular selectivity [2] [fold] | Cell Efficacy + SN38 in HT29 cells (Potentiation Index) [3] [fold]
1 | N#Cc1cnc(Nc2cc(NC[C@H]3CNCCO3)c(C(F)(F)F)cn2)cn1 [Compound 1, 5-[[4-[[(2R)-Morpholin-2-yl]methylamino]-5-(trifluoromethyl)-2-pyridyl]amino]pyrazine-2-carbonitrile] | 30 | – | – | – | – | –
2 | N#Cc1cnc(Nc2cc(NC[C@@H]3CNCCO3)c(C(F)(F)F)cn2)cn1 [Compound 2, 5-[[4-[[(2S)-Morpholin-2-yl]methylamino]-5-(trifluoromethyl)-2-pyridyl]amino]pyrazine-2-carbonitrile] | 18 | – | – | – | – | –
3 | N#Cc1cnc(Nc2cc(NCC3CNCCO3)c(C(=O)Nc3ccccc3)cn2)cn1 (stereo not shown) [Compound Y-102] | 800 | ~27 | ~44 | ~5.6 | ~33 | –
4 | COCc1ccc(-c2cnc(Nc3cnc(C#N)cn3)cc2NC[C@@H]2CNCCO2)cc1 [Compound Y-148] | 900 | ~30 | ~50 | ~5.9 | ~34 | –
5 | COCCOc1ccc(-c2cnc(Nc3cnc(C#N)cn3)cc2NC[C@@H]2CNCCO2)cc1 [Compound Y-149] | 1100 | ~34 | ~61 | ~7.4 | ~43 | –
6 | COCC#Cc1cnc(Nc2cnc(C#N)cn2)cc1NC[C@@H]1CNCCO1 [Compound Y-154] | 90 | – | – | – | – | –
7 | COC(C)(C)C#Cc1cnc(Nc2cnc(C#N)cn2)cc1NC[C@@H]1CNCCO1 [Compound Y-155] | 120 | ~4 | ~7 | ~2.4 | ~13 | 0.9
8 | COCc1ccc(-c2cnc(Nc3cnc(C#N)cn3)cc2NC[C@H]2CNCCO2)cc1 [Compound Y-156] | 560 | ~19 | ~31 | ~4.8 | ~28 | 1.6
9 | COCCOc1ccc(-c2cnc(Nc3cnc(C#N)cn3)cc2NC[C@H]2CNCCO2)cc1 [Compound Y-157] | 600 | ~20 | ~33 | ~4.1 | ~24 | 2
10 | COCCCc1cnc(Nc2cnc(C#N)cn2)cc1NC[C@H]1CNCCO1 [Compound Y-159] | 700 | – | – | – | – | –
